In PubChem BioAssay (NCI):
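Method: 48-hour compound exposure of cells in 96-well plates, five concentrations, linear interpolation of endpoints. GI50: concentration for 50% inhibition of growth. TGI denotes the concentration required for complete inhibition of growth.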

Key:
Assay in all cases: NCI anticancer screen, dose series, 48 h
HCC-2998 colon = test system: HCC-2998 colon
HCT-116 colon = test system: HCT-116 colon
IGROV1 ovarian = test system: IGROV1 ovarian
OVCAR-5 ovarian = test system: OVCAR-5 ovarian
SNB-75 CNS = test system: SNB-75 CNS
TK-10 renal = test system: TK-10 renal
U251 CNS = test system: U251 CNS
RPMI-8226 leukemia = test system: RPMI-8226 leukemia
SK-OV-3 ovarian = test system: SK-OV-3 ovarian
MALME-3M melanoma = test system: MALME-3M melanoma

Structure (SMILES) | TGI (HCC-2998 colon) [µM] | TGI (HCT-116 colon) [µM] | TGI (IGROV1 ovarian) [µM] | TGI (OVCAR-5 ovarian) [µM] | TGI (SNB-75 CNS) [µM] | TGI (TK-10 renal) [µM] | TGI (U251 CNS) [µM] | TGI (RPMI-8226 leukemia) [µM] | TGI (SK-OV-3 ovarian) [µM] | TGI (MALME-3M melanoma) [µM] | GI50 (HCT-116 colon) [µM] | GI50 (IGROV1 ovarian) [µM] | GI50 (MALME-3M melanoma) [µM] | GI50 (OVCAR-5 ovarian) [µM] | GI50 (RPMI-8226 leukemia) [µM] | GI50 (SK-OV-3 ovarian) [µM] | GI50 (SNB-75 CNS) [µM] | GI50 (TK-10 renal) [µM] | GI50 (U251 CNS) [µM] | GI50 (HCC-2998 colon) [µM]
S=P(c1ccccc1)(c1ccccc1)C1(C2(P(=S)(c3ccccc3)c3ccccc3)CC2)CC1 | > 100 | > 100 | > 100 | > 100 | > 100 | > 100 | > 100 | – | – | – | – | – | – | – | – | – | – | – | – | –
CCOC(=O)C#Cc1ccc([N+](=O)[O-])cc1 | 28.7 | 3.03 | 4.42 | 2.83 | 7.88 | 27.4 | 3 | 4.68 | 25.6 | – | – | – | – | – | – | – | – | – | – | –
COC1OC(CBr)C(OC(c2ccccc2)(c2ccccc2)c2ccccc2)C(OC(c2ccccc2)(c2ccccc2)c2ccccc2)C1OC(c1ccccc1)(c1ccccc1)c1ccccc1 (stereo not given) | > 100 | > 100 | > 100 | > 100 | – | > 100 | – | > 100 | 60.7 | > 100 | – | – | – | – | – | – | – | – | – | –
O=C1NC(=O)C(=O)C(c2nc3ccccc3s2)C1=O | > 100 | > 100 | > 100 | – | > 100 | > 100 | > 100 | – | > 100 | > 100 | – | – | – | – | – | – | – | – | – | –
CN(C)Cc1cccc(CN(C)C)[c]1[Sn]([Br])([c]1ccccc1)[c]1ccccc1 | – | 17.3 | 4.52 | 32.5 | 66.2 | 46.9 | 15.5 | 6.86 | 30.6 | 27.4 | 4.31 | 0.436 | 12.6 | 16.7 | 2.29 | 14.3 | 21.7 | 17.2 | 3.71 | –
Oc1cccc(Cn2c(-c3cccc(O)c3O)nc3ccccc32)c1O | 30 | 10.9 | > 100 | 48.1 | > 100 | 7.52 | 26.2 | > 100 | 75.4 | – | 2.24 | 34 | – | 10.9 | 9.69 | 13.9 | 26.2 | 1.88 | 4.44 | 11
Cc1ccc2c(N/N=C\c3ccco3)cc(C)nc2n1 | 7.4 | 11 | 14.8 | 26.3 | 26.4 | – | 7.06 | 7.06 | 22.7 | – | 2.95 | 3.41 | – | 11.8 | 2.48 | 8.74 | 11.4 | – | 1.94 | 2.7
c1ccc2c(c1)nnn2CNc1ccc(N2CCOCC2)cc1 | > 100 | > 100 | > 100 | – | > 100 | > 100 | > 100 | > 100 | > 100 | > 100 | – | – | – | – | – | – | – | – | – | –
C/C(=N\NS(=O)(=O)c1ccc(C)cc1)c1c(O)cc(C)oc1=O | > 100 | > 100 | > 100 | – | > 100 | > 100 | > 100 | – | > 100 | > 100 | – | – | – | – | – | – | – | – | – | –
c1ccc(/N=C2\c3ccccc3CN2c2ccccn2)nc1 | > 100 | > 100 | > 100 | > 100 | > 100 | > 100 | > 100 | > 100 | > 100 | – | – | – | – | – | – | – | – | – | – | –
COc1ccc(-c2csc(NC(=O)N3CCN(c4cc5c(cc4F)c(=O)c(C(=O)O)cn5C4CC4)CC3)n2)cc1 | > 100 | > 100 | > 100 | – | 17.4 | 37 | 16.8 | – | – | – | 1.72 | 2.36 | – | – | – | – | 2.47 | 6.93 | 0.66 | 3.83
O=C(Nc1ccc(Cl)cc1)c1cc2cc(F)ccc2cc1O | > 100 | 6.66 | > 100 | > 100 | – | 58.9 | 6.54 | 7.16 | 5.76 | 4.11 | 0.963 | 2.28 | 0.613 | 3.28 | 0.591 | 1.08 | – | 2.39 | 1.1 | 3.13
CCN(CC)CCOC(=O)/C(=C/c1ccc(OC)cc1)c1cc(OC)c(OC)c(OC)c1 | – | > 100 | > 100 | 43.7 | 11.6 | > 100 | 25.5 | 52.5 | – | 34.1 | – | – | – | – | – | – | – | – | – | –
COc1cc2ccc(/C(C)=N/OC(C)=O)cc2cc1OC | – | > 100 | > 100 | > 100 | 40.9 | > 100 | > 100 | > 100 | > 100 | > 100 | – | – | – | – | – | – | – | – | – | –
COc1cc2c(=O)n(CCCn3ccnc3)c3c4cc5c(cc4ccc3c2cc1OC)OCO5 | > 100 | – | > 86.6 | – | 9.45 | > 100 | 15.8 | – | 11.3 | > 100 | – | 1.16 | 2.02 | – | – | 0.443 | 0.298 | 36 | 0.393 | 13.4
NCC1OC(n2cnc3c(=O)[nH]c(N)nc32)C(O)C1O (stereo not given) | – | > 100 | > 100 | > 100 | > 100 | > 100 | > 100 | > 63.8 | > 100 | > 100 | – | – | – | – | – | – | – | – | – | –
O=C1CC2C(=O)C1C(C(=O)O)C2C(=O)O (stereo not given) | – | > 100 | > 100 | > 100 | – | > 100 | > 100 | > 100 | > 100 | > 100 | – | – | – | – | – | – | – | – | – | –
ClC1(c2ccccc2)c2ccc(Br)cc2-c2cc(Br)ccc21 | 36.2 | 28.5 | 30.2 | 31.4 | – | 34.8 | 31.6 | 64.8 | 39.1 | 32.5 | – | – | – | – | – | – | – | – | – | –
COc1ccc(-c2nc(N)c3ncn(C4OC(CO)C(O)C4O)c3n2)cc1 (stereo not given) | – | > 100 | > 100 | > 100 | > 100 | > 100 | > 100 | > 100 | > 100 | > 100 | – | – | – | – | – | – | – | – | – | –
CCOC(=O)/C(C#N)=C\C=C1/C=CNC2=NCCN21 | > 100 | > 100 | > 100 | – | > 100 | > 100 | > 100 | > 100 | > 100 | > 100 | – | – | – | – | – | – | – | – | – | –
